Data taken from patent US4863949A, “Aminopropanol derivatives, processes for the preparation thereof, the use thereof and pharmaceutical compositions containing them” (Boehringer Mannheim GmbH, priority 1985, dated 1989).
Where a name gives a salt, the structure may show the parent alone.

System: livers
Assay: denitration rate in perfused rat livers relative to isosorbide-5-mononitrate (nitrate-like action)
Design: species or system rats
Conditions: rat livers perfused 4 min, equimolar 5×10^-5 M/l; freed NO2 in perfusate; high = fast denitration

| Compound | Vrel (denitration rate in relation to isosorbide-5-mononitrate) |
| --- | --- |
| O=C(CCCO[N+](=O)[O-])NCCNCC(O)COc1cccc2[nH]ccc12 (stereo not shown) [2 (11.), 1-indol-4-yloxy)-3-[2-(4-nitroxybutanoylamino)-ethylamino]-propan-2-ol hemifumarate] | 0,95 |
| O=C(CCCO[N+](=O)[O-])NCCNCC(O)COc1cccc2c1CC(=O)N2.O=C(O)/C=C/C(=O)O (stereo not shown) [2 (17.), 3-[2-(4-nitroxybutanoylamino)-ethylamino]-1-(2-oxoindolin-4-yloxy)-propan-2-ol fumarate] | 0,75 |
| CC(CCC(=O)NCCNCC(O)COc1cccc2c1CC(=O)N2)O[N+](=O)[O-] (stereo not shown) [2 (29.), 3-[2-(4-nitroxypentanoylamino)-ethylamino]-1-(2-oxoindolin-4-yloxy)-propan-2-ol cyclamate] | 0,86 |
| O=C(CCCCO[N+](=O)[O-])NCCNCC(O)COc1cccc2c1CC(=O)N2 (stereo not shown) [2 (31.), 3-[2-(5-nitroxypentanoylamino)-ethylamino]-1-(2-oxoindolin-4-yloxy)-propan-2-ol hemifumarate] | 0,66 |
| Cc1ccc(Cl)c(OCC(O)CNC(C)(C)CNC(=O)CCCO[N+](=O)[O-])c1 (stereo not shown) [2 (46.), 1-(2-chloro-5-methylphenoxy)-3-[1,1-dimethyl-2-(4-nitroxybutanoylamino)-ethylamino]-propan-2-ol cyclamate] | 0,97 |
| CC(C)(CNC(=O)CCCO[N+](=O)[O-])NCC(O)COc1ccccc1C#N.O=C(O)/C=C/C(=O)O (stereo not shown) [2 (48.), 1-(2-cyanophenoxy)-3-[1,1-dimethyl-2-(4-nitroxybutanoylamino)-ethylamino]-propan-2-ol fumarate] | 0,94 |
| C=CCc1ccccc1OCC(O)CNC(C)(C)CNC(=O)CCCO[N+](=O)[O-] (stereo not shown) [2 (72.), 1-(2-allylphenoxy)-3-[1,1-dimethyl-2-(4-nitroxybutanoylamino)-ethylamino]-propan-2-ol cyclamate] | 0,54 |
| CC(=O)Oc1c(C)cc(OCC(O)CNC(C)(C)CNC(=O)CCCO[N+](=O)[O-])c(C)c1C.O=C(O)/C=C/C(=O)O (stereo not shown) [8 (15.), 3-[1,1-dimethyl-2-(4-nitroxybutanoylamino)-ethylamino]-1-(4-methylcarbonyloxy-2,3,5-trimethylphenoxy)-propan-2-ol fumarate] | 1,19 |
| Cn1cnc2cccc(OCC(O)CNC(C)(C)CNC(=O)O[C@H]3CO[C@H]4[C@@H]3OC[C@H]4O[N+](=O)[O-])c21 (stereo partly shown) [Example 11, 3-[1,1-Dimethyl-2-[(5-O-nitroisosorbid-2-yloxy)-carbonylamino]-ethylamino]-1-(3-methylbenzimidazol-4-yloxy)-propan-2-ol fumarate] | 1,23 |
| O=[N+]([O-])O[C@@H]1CO[C@H]2[C@@H]1OC[C@@H]2O [Isosorbide-5-mononitrate, isosorbide-5-mononitrate, reference compound] | 0,86 |
